The text below walks through data of patent US6943162B2, “Piperazinyltriazines as estrogen receptor modulators” (SmithKline Beecham Corporation, priority 2001, dated 2005).

SMILES strings stand for the structures. pKi: −log10 of the molar value. Read-outs that look alike come from different tables or passages of the source.

Broadly, the pKi is the negative decadic logarithm of the Ki, by convention in mol/L. Higher therefore signals a small Ki.

The target in one assay is T1, ERα (Homo sapiens, UniProt P03372).
T1 construct: GST (N); made in house; host or cells: E. coli BL21(DE3)pLysS
T1 sequence (P03372 311-547 limits assumed): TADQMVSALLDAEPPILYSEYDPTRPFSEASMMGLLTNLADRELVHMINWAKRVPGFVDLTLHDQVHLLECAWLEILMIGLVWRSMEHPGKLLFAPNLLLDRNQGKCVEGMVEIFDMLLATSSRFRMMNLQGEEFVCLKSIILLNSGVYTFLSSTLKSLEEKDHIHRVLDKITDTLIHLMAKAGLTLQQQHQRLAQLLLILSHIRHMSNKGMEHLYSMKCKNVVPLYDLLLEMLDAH
Nature of the assay: Estrogen receptor competition binding assay (SPA, [3H]Estradiol), ERα. To be noted: for Ki: competition binding assay, GST-hERα ligand binding domain, 1 nM [3H]Estradiol, (n) = number of determinations, read-out: Avg. ER α pKi (n) (converted). On the procedure:
(§1) The ligand binding domain of both ERα and ERβ were subcloned into pGEX-2T vector which had been modified to contain KpnI and BamHI restriction sites in the multiple cloning region. GST-hERα and GST-hERβ proteins were made by transforming BL21(DE3)pLYS S competent cells with the appropriate expression plasmid. […] The cells were collected by centrifugation and resuspended in lysis buffer (50 mM Tris pH 7.9; 250 mM KCl; 1% Triton X-100; 10 mM DTT; 1 mM PMSF). The lysate was then placed on dry ice until completely frozen. […] The supernatant was retained and glycerol was added to a final concentration of 10%. The protein content of the supernatant was quantitated using the BioRad Protein Assay Reagent The protein was then stored at −80° C. until used in the binding assay.
(§2) Polylysine coated Yttrium Silicate SPA beads (Amersham #RPNQ 0010) are resuspended in assay buffer [10 mM potassium phosphate buffer pH 7.0 containing 2 mM EDTA, 50 mM NaCl, 1 mM DTT, 2 mM CHAPS, 10% glycerol] to a concentration of 1 g/60 ml. […] [2, 4, 6, 7, 16, 17-3H(N)]-Estradiol is added as a 30 ul aliquot to give a final assay concentration of 1 nM. […] The plates are shaken vigorously for two hours then counted on a Packard TopCount using the protocol for counting tritium yttrium silicate SPA beads. Data analysis was done by standard methods. % Bound was calculated for each concentration of each test compound using the equation % Bound=100*((Test−NS)/(T−NS)). % Bound was plotted vs concentration and curve fitting was accomplished using non-linear regression.

A further assay has as its target T2, ERβ (Homo sapiens, UniProt Q92731).
T2 construct: GST (N); made in house; host or cells: E. coli BL21(DE3)pLysS
Nature of the assay: Estrogen receptor competition binding assay (SPA, [3H]Estradiol), ERβ. On the procedure: as §1, §2

T2 sequence (Q92731 264-498 limits assumed): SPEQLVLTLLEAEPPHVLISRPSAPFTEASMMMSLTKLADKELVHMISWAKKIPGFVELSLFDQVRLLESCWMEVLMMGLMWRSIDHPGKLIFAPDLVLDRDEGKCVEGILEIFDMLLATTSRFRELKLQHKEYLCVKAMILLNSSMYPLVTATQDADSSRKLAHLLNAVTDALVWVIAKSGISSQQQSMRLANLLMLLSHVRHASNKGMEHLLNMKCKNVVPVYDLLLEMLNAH

As for `CN(CCCc1ccc(Cl)cc1)c1nc(NCCc2ccc(O)cc2)nc(N2CCNCC2)n1` [Example 1, 4-(2-{[4-[[3-(4-chlorophenyl)propyl](methyl)amino]-6-(1-piperazinyl)-1,3,5-triazin-2-yl]amino}ethyl)phenol], the Ki at ERα is 339 nM. Moreover, on ERβ, the pKi is 7.98.
For `COc1cccc(C(=O)N2CCN(c3nc(NCCc4ccc(O)cc4)nc(N(C)CCCc4ccc(Cl)cc4)n3)CC2)c1` [Example 3, 4-[2-({4-[[3-(4-chlorophenyl)propyl](methyl)amino]-6-[4-(3-methoxybenzoyl)-1-piperazinyl]-1,3,5-triazin-2-yl}amino)ethyl]phenol], in that order: 1780 nM and 7.02.
For `CN(CCCc1ccc(Cl)cc1)c1nc(NCCc2ccc(O)cc2)nc(N2CCN(C(=O)c3ccccn3)CC2)n1` [Example 4, 4-[2-({4-[[3-(4-chlorophenyl)propyl](methyl)amino]-6-[4-(2-pyridinylcarbonyl)-1-piperazinyl]-1,3,5-triazin-2-yl}amino)ethyl]phenol], in that order: 4370 nM and 6.81.
At ERβ, `CN(CCCc1ccc(Cl)cc1)c1nc(NCCc2ccc(O)cc2)nc(N2CCN(Cc3ccccn3)CC2)n1` [Example 5, 4-[2-({4-[[3-(4-chlorophenyl)propyl](methyl)amino]-6-[4-(2-pyridinylmethyl)-1-piperazinyl]-1,3,5-triazin-2-yl}amino)ethyl]phenol] had a pKi of 7.42.
Same read-out and setting: next, `CN(CCCc1ccc(Cl)cc1)c1nc(NCCc2ccc(O)cc2)nc(N2CCN(Cc3cccnc3)CC2)n1` [Example 6, 4-[2-({4-[[3-(4-chlorophenyl)propyl](methyl)amino]-6-[4-(3-pyridinylmethyl)-1-piperazinyl]-1,3,5-triazin-2-yl}amino)ethyl]phenol]: 7.50.
The same measure, in the same setting: the same measure for `Cc1nc(CN2CCN(c3nc(NCCc4ccc(O)cc4)nc(N(C)CCCc4ccc(Cl)cc4)n3)CC2)cs1` [Example 7, 4-{2-[(4-[[3-(4-chlorophenyl)propyl](methyl)amino]-6-{4-[(2-methyl-1,3-thiazol-4-yl)methyl]-1-piperazinyl}-1,3,5-triazin-2-yl)amino]ethyl}phenol]: 7.73.
In the case of `CN(CCCc1ccc(Cl)cc1)c1nc(NCCc2ccc(O)cc2)nc(N2CCN(/C(=C/C(=O)c3ccccc3)C(F)(F)F)CC2)n1` [Example 8, (2E)-3-[4-(4-[[3-(4-chlorophenyl)propyl](methyl)amino]-6-{[2-(4-hydroxyphenyl)ethyl]amino}-1,3,5-triazin-2-yl)-1-piperazinyl]-4,4,4-trifluoro-1-phenyl-2-buten-1-one], the Ki at ERα is 1580 nM. This molecule had a pKi on ERβ of 7.08.
For `CN(C)C(=O)CCN1CCN(c2nc(NCCc3ccc(O)cc3)nc(N(C)CCCc3ccc(Cl)cc3)n2)CC1` [Example 9, 3-[4-(4-[[3-(4-chlorophenyl)propyl](methyl)amino]-6-{[2-(4-hydroxyphenyl)ethyl]amino}-1,3,5-triazin-2-yl)-1-piperazinyl]-N,N-dimethylpropanamide], in that order: 355 nM and 7.70.
For `CN1CCN(c2nc(NC3CCc4cc(O)ccc4C3)nc(SCCCc3ccccc3)n2)CC1` (stereo not shown) [Example 10, 6-({4-(4-methyl-1-piperazinyl)-6-[(3-phenylpropyl)sulfanyl]-1,3,5-triazin-2-yl}amino)-5,6,7,8-tetrahydro-2-naphthalenol], in that order: 398 nM and 7.20.
`C=CCN1CCN(c2nc(NCCc3ccc(O)cc3)nc(N(C)CCCc3ccc(Cl)cc3)n2)CC1` [Example 12, 4-[2-({4-(4-ally-1-piperazinyl)-6-[[3-(4-chlorophenyl)propy](methyl)amino]-1,3,5-triazin-2-yl}amino)ethyl]phenol] showed a negative logarithm of the Ki (pKi) at ERβ of 7.64.
`CN(CCCc1ccc(Cl)cc1)c1nc(NCCc2ccc(O)cc2)nc(N2CCN(C/C=C/c3ccccc3)CC2)n1` [Example 13, 4-{2-[(4-[[3-(4-chlorophenyl)propyl](methyl)amino]-6-{4-[(2E)-3-phenyl-2-propenyl]-1-piperazinyl}-1,3,5-triazin-2-yl)amino]ethyl]phenol]: at ERα, the Ki was 141 nM. Also, the pKi on ERβ is 8.00.
For `CN(CCCc1ccc(Cl)cc1)c1nc(N(C)CCc2ccc(O)cc2)nc(N2CCNCC2)n1` [Example 14, 4-{2-[[4-[[3-(4-chlorophenyl)propyl](methyl)amino]-6-(1-piperazinyl)-1,3,5-triazin-2-yl](methyl)amino]ethy}phenol], in that order: 562 nM and 7.58.
For `CN1CCN(c2nc(N(C)CCCc3ccc(Cl)cc3)nc(N(C)CCc3ccc(O)cc3)n2)CC1` [Example 15, 4-(2-{[4-[[3-(4-chlorophenyl)propyl](methyl)amino]-6-(4-methyl-1-piperazinyl)-1,3,5-triazin-2-yl](methyl)amino}ethyl)phenol], in that order: 380 nM and 7.88.
For `C[C@@H]1CN(c2nc(N(C)CCCc3ccc(Cl)cc3)nc(N(C)CCc3ccc(O)cc3)n2)C[C@H](C)N1` [Example 16, 4-(2-{[4-[[3-(4-chlorophenyl)propyl](methyl)amino]-6-(3,5-cis-dimethyl-1-piperazinyl)-1,3,5-triazin-2-yl](methyl)amino}ethyl)phenol], in that order: 229 nM and 7.96.
As for `CN(CCCc1ccc(Cl)cc1)c1nc(N(C)CCc2ccc(O)cc2)nc(N2CCN(CCO)CC2)n1` [Example 17], the Ki on ERα was 603 nM. The pKi on ERβ is 7.54.
In the case of `CN(CCCc1ccc(F)cc1)c1nc(NCCc2ccc(O)cc2)nc(N2CCNCC2)n1` [Example 18, 4-(2-{[4-[[3-(4-fluorophenyl)propyl](methyl)amino]-6-(1-piperazinyl)-1,3,5-triazin-2-yl]amino}ethyl)phenol], at ERα, the Ki was 372 nM. At ERβ, this molecule had a negative-log Ki (pKi) of 7.80.
For `CN(CCCc1ccc(F)cc1)c1nc(N(C)CCc2ccc(O)cc2)nc(N2CCNCC2)n1` [Example 19, 4-(2-{[4-[[3-(4-fluorophenyl)propyl](methyl)amino]-6-(1-piperazinyl)-1,3,5-triazin-2-yl]methylamino}ethyl)phenol], in that order: 550 nM and 7.61.
On to `CN1CCN(c2nc(N(C)CCCc3ccc(F)cc3)nc(N(C)CCc3ccc(O)cc3)n2)CC1` [Example 20, 4-(2-{[4-[[3-(4-fluorophenyl)propyl](methyl)amino]-6-(4-methyl-1-piperazinyl)-1,3,5-triazin-2-yl]methylamino}ethyl)phenol], for which the Ki on ERα was 562 nM. Also, the pKi at ERβ was 7.63.
Consider `CN(CCCc1ccc(F)c(F)c1)c1nc(N(C)CCc2ccc(O)cc2)nc(N2CCNCC2)n1` [Example 21, 4-(2-{[4-[[3-(3,4-difluorophenyl)propyl](methyl)amino]-6-(1-piperazinyl)-1,3,5-triazin-2-yl]methylamino}ethyl)phenol], for which the Ki on ERα is 214 nM. The pKi on ERβ is 7.63.
Turning to `CN(CCCc1ccc(C(F)(F)F)cc1)c1nc(N(C)CCc2ccc(O)cc2)nc(N2CCNCC2)n1` [Example 22, 4-(2-{methyl[4-(methyl{3-[4-(trifluoromethyl)phenyl]propyl}amino)-6-(1-piperazinyl)-1,3,5-triazin-2-yl]amino}ethyl)phenol], the Ki on ERα is 550 nM. The pKi at ERβ is 7.07.
`CN(CCCc1ccc(Cl)cc1Cl)c1nc(N(C)CCc2ccc(O)cc2)nc(N2CCNCC2)n1` [Example 23, 4-(2-{[4-[[3-(2,4-dichlorophenyl)propyl](methyl)amino]-6-(1-piperazinyl)-1,3,5-triazin-2-yl]methylamino}ethyl)phenol]: on ERα, the Ki was 501 nM. At ERβ, this molecule had a pKi of 7.48.
With `CN(CCCc1ccc(Cl)cc1)c1nc(NCCc2ccc(O)cc2)nc(N2CCN(CCO)CC2)n1` [Example 24, 4-[2-({4-[[3-(4-chlorophenyl)propyl](methyl)amino]-6-[4-(2-hydroxyethyl)-1-piperazinyl]-1,3,5-triazin-2-yl}amino)ethyl]phenol], the values for the negative logarithm of the Ki (pKi) on ERα and on ERβ were 6.47 and 7.83, respectively.
